# Source: paper PMC6594753, “Cystic fibrosis drug ivacaftor stimulates CFTR channels at picomolar concentrations” (eLife, 2019)
# “And” between values parts separate entries of the source, which are not always exact repeats. Equal entries are not always repeated. Where two headings read alike, the source gives them in different places.
# Assays:
# [1] = Determination of Vx-770 solubility profile (incremental solvent addition; saturated saline, 1-octanol extraction, spectrophotometry at 311 nm); format: physicochemical; conditions: aqueous saline (standard bath solution), read-out: aqueous solubility Saq
# WT CFTR = target: T1, WT CFTR (Homo sapiens, UniProt P13569); assay: Ensemble fitting of gating models (Schemes 3 and 4) to on-off current time courses; format: biochemical; conditions: for EC50 / Kd: calculated from fit parameters; for kin: constrained kin/kout = 62580; for Kd: read-out: Kd;mem
# T1 construct: expressed in transfected cells; host or cells: Xenopus laevis oocytes injected with cRNA transcribed from pGEMHE-CFTR
# From the text: We next attempted to interpret the observed complex kinetics of the drug effects in terms of various molecular models (Figure 5a–d), by performing global fits of each model (Figure 5f, colored lines) to the ensemble of four experimentally observed current time courses: activation and deactivation upon addition and removal of 0.01x saturated (Figure 5f, gray trace) and 1x saturated (Figure 5f, black trace) Vx-770.
# An alternative mechanism that could explain delayed activation by the drug is the presence of multiple drug binding sites, all of which must be occupied to switch the channel to a high open probability state. […] We therefore evaluated a simplistic model which postulates independent drug binding to two sites, with identical affinities, but a substantial change in open probability (from Po;bas to Po;max) only for diliganded channels (Scheme 3, Figure 5c).
# Finally, assuming a two-compartment membrane and two drug-binding sites, both accessible from the outer leaflet (Scheme 4, Figure 5d), afforded a further small improvement (Figure 5f, red fit lines) relative to Scheme 3, albeit at the expense of an extra free parameter (Figure 5e, right).
# The dynamic equations that describe the kinetic models depicted in Figure 5 are as follows:
# • dx1(t)/dt = kin⋅Vc – 2⋅kout⋅x1(t) – kon'⋅(2⋅x2(t)+x3(t))⋅x1(t) + koff⋅(2⋅(Ct–x2(t)–x3(t))+x3(t)) • dx2(t)/dt = – 2⋅kon'⋅x1(t)⋅x2(t) + koff⋅x3(t) • dx3(t)/dt = 2⋅kon'⋅x1(t)⋅x2(t) + 2⋅koff⋅(Ct–x2(t)–x3(t)) – (koff +kon'⋅x1(t))⋅x3(t)
# (§1) where x1(t) is the concentration of free Vx-770 in the membrane, x2(t) is the concentration of unliganded CFTR channels in the membrane, x3(t) is the concentration of monoliganded CFTR channels in the membrane, Ct is the total concentration of CFTR channels in the membrane, and Vc is the concentration of Vx-770 in the cytosol.
# • dx1(t)/dt = kin⋅Vc – (kout +kflip)⋅x1(t) + kflip⋅x2(t) • dx2(t)/dt = kflip⋅x1(t) – (kout +kflip)⋅x2(t) – kon'⋅(2⋅x3(t)+x4(t))⋅x2(t) + koff⋅(2⋅(Ct–x3(t)–x4(t))+x4(t)) • dx3(t)/dt = – 2⋅kon'⋅x2(t)⋅x3(t) + koff⋅x4(t) • dx4(t)/dt = 2⋅kon'⋅x2(t)⋅x3(t) + 2⋅koff⋅(Ct–x3(t)–x4(t)) – (koff +kon'⋅x2(t))⋅x4(t)
# as §1, with “x1(t) is the concentration of Vx-770 in the inner membrane leaflet, x2(t)” for “x1(t)”, “outer membrane leaflet, x3(t)” for “membrane, x2(t)”, “outer membrane leaflet, x4(t)” for “membrane, x3(t)”, “outer membrane leaflet,” for “membrane,”
# To calculate the value of Ct, the total number of channels in the patch (N) was estimated by assuming Po;bas=0.16 for prephosphorylated channels in ATP (cf., Figure 2c). For Schemes 1 and 3 the volume of the membrane patch was taken as 10^−16 liter (assuming a macroscopic patch surface area of ~4 μm^2 increased by ~5 fold at a microscopic level due to the presence of microvilli ([Dascal, 1987]), and a membrane thickness of ~5 nm), and for Schemes 2 and 4 the volume of the outer membrane leaflet was taken as 5⋅10^−17 liter. Ct was then calculated as N/NA divided by the relevant volume (NA, Avogadro's number).
# For the ensemble fitting, all experimental current traces were normalized to their steady-state values observed prior to exposure to Vx-770. Predicted normalized on- and off- current time courses for each model were calculated from the above dynamic equations by solving for the time-dependent evolution of the vector x, using a modified Euler's method ([Press, 1992]). For the on- time courses the initial values for all xi were set to zero, for the off- time courses the final x vector of the preceding on- time course served as the initial vector while Vc was set to zero. […]
# [2] = Octanol/water distribution coefficient from solubilities; format: physicochemical; conditions: pH=7.1
# [3] = Scheme 3, average of global fits to three pairs of time courses
# [4] = Scheme 4, average of global fits to three pairs of time courses
# T1 sequence (P13569 whole entry): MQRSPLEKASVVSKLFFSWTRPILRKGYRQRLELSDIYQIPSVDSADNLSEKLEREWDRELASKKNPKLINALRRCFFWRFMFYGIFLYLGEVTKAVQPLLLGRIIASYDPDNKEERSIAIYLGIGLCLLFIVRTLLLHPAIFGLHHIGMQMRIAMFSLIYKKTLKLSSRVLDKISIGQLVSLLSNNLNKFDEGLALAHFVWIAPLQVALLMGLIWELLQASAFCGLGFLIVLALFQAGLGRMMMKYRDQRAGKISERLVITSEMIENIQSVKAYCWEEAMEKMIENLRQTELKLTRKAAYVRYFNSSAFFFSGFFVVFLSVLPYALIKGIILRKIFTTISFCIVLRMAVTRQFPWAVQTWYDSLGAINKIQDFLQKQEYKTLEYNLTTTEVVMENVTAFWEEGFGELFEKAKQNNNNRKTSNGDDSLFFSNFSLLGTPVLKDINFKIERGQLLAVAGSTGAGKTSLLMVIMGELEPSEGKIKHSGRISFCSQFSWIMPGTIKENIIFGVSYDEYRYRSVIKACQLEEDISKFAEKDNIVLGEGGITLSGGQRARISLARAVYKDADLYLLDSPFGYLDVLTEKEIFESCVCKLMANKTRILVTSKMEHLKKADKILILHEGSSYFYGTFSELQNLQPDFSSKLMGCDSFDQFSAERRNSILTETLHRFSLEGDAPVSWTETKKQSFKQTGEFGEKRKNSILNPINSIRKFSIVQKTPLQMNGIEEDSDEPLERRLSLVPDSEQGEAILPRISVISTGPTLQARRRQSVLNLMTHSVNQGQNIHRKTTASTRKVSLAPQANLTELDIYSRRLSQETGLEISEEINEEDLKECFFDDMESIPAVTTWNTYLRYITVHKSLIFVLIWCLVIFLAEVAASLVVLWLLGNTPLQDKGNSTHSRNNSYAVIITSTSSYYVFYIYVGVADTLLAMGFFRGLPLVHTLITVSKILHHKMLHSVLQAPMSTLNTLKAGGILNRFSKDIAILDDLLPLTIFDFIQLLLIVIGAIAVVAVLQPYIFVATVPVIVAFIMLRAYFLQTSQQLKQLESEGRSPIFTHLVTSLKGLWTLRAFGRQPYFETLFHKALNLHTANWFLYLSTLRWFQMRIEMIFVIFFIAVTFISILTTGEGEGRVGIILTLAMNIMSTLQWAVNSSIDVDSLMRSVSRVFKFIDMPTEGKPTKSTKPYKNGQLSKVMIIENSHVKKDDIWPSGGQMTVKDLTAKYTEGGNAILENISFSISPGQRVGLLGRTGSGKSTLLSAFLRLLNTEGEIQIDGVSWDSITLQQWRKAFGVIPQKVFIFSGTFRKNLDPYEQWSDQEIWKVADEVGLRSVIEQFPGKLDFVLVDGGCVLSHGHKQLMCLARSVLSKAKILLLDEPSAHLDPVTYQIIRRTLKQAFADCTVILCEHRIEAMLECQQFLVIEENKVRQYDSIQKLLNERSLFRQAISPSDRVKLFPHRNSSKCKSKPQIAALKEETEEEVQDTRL
structure (smiles),measurement,setting,value
"CC(C)(C)c1cc(C(C)(C)C)c(NC(=O)c2c[nH]c3ccccc3c2=O)cc1O [Vx-770, ivacaftor]",solubility,"[1]; pH 7.1, 37°C, pH = 7.1, aqueous saline",0.138 ± 0.001 µM
same,solubility at 24 h,"[1]; pH 7.4, 25°C, pH = 7.4, aqueous saline",0.05 ± 0.001 µM
same,EC50,"WT CFTR; Scheme 3, Figure 5f data set, read-out: K0.5;aq",0.74 nM
same,kin,"WT CFTR; Scheme 3, average (mean ± S.E.M.) of global fits to three pairs of time courses",4034 ± 464 s⁻¹
same,Po;max/Po;bas,WT CFTR; [3],3.935 ± 0.001
same,koff,WT CFTR; [3],0.00745 ± 0.000871 s⁻¹
same,kon,WT CFTR; [3],870 ± 104 M⁻¹ s⁻¹
same,kout,WT CFTR; [3],0.06446 ± 0.00742 s⁻¹
same,EC50,"WT CFTR; Scheme 3, average of three fits, read-out: K0.5;aq",0.675 ± 0.0895 nM
same,EC50,"WT CFTR; Scheme 3, average of three fits, read-out: K0.5;mem",21100 ± 2800 nM
same,Kd,"WT CFTR; Scheme 3, average of three fits",8750 ± 1160 nM
same,koff,"WT CFTR; Scheme 3, global fit to data set of Figure 5f",0.00651 s⁻¹
same,EC50,"WT CFTR; Scheme 4, Figure 5f data set, read-out: K0.5;aq",0.72 nM
same,kin,"WT CFTR; Scheme 4, average (mean ± S.E.M.) of global fits to three pairs of time courses",9794 ± 531 s⁻¹
same,Po;max/Po;bas,WT CFTR; [4],3.996 ± 0.007
same,kflip,WT CFTR; [4],0.04408 ± 0.00583 s⁻¹
same,koff,WT CFTR; [4],0.01075 ± 9e-05 s⁻¹
same,kon,WT CFTR; [4],3700 ± 627 M⁻¹ s⁻¹
same,kout,WT CFTR; [4],0.1565 ± 0.0085 s⁻¹
same,EC50,"WT CFTR; Scheme 4, average of three fits, read-out: K0.5;aq",0.669 ± 0.0955 nM
same,EC50,"WT CFTR; Scheme 4, average of three fits, read-out: K0.5;mem",7500 ± 1460 nM
same,Kd,"WT CFTR; Scheme 4, average of three fits",3110 ± 605 nM
same,koff,"WT CFTR; Scheme 4, global fit to data set of Figure 5f",0.0106 s⁻¹
same,logD,[2]; octanol/water,4.8
same,octanol/water distribution coefficient Doct/wat,[2],62580 and ~ 60000
